Laboratory results reported in patent US4782139A, “Selective chemical removal of a protein amino-terminal residue” (Eli Lilly and Company, priority 1986, dated 1988).
Values belong to the compound of their own block, whether it stands above or below them. Residues, ends and D or L forms follow the SMILES beside them. No end group written: not given here.

Key:
[1] = Organic cleavage conditions: diketopiperazine formation and disappearance of starting peptide, reverse phase chromatography; assay type: physicochemical
Description: […] A molecular sieves for one week. […] The rate of cleavage was monitored by appearance of methionyl-proline diketopiperazine formation and disappearance of starting peptide as measured in reverse phase chromatographic analysis. Chromatography was achieved using a 0.46×25 cm column of Ultrosphere C18 in 0.1% trifluoroacetic acid (TFA), using an acetonitrile gradient to effect elution. The reaction was stopped at each analysis time point by ten-fold dilution with 0.1% trifluoroacetic acid. The diketopiperazine peak was collected and its identity confirmed by amino acid and mass spectral analysis.

[2] = Protein stability under organic cleavage conditions, reverse phase HPLC; details: 40° C.; for Protein Stability, relative percent remaining: against an untreated external control
Description: Analysis of the products obtained via the foregoing cleavage methods upon a representative sampling of peptides and proteins was assessed by high performance anion exchange and reverse phase chromatography. Anion exchange chromatography was conducted on a Mono Q column in a 0.05M Tris, pH 8.0 buffer containing 30% acetonitrile. Elution was provided using a linear gradient of sodium chloride. Reverse phase analysis was performed on a Zorbax C8, 150Å pore size column using an acetonitrile gradient in 0.1M ammonium phosphate at 45° C., pH 7.0.

[3] = Protein stability under organic cleavage conditions, anion exchange HPLC; assay type: physicochemical; details: 40° C.
Description: Anion exchange chromatography was conducted on a Mono Q column in a 0.05M Tris, pH 8.0 buffer containing 30% acetonitrile. Elution was provided using a linear gradient of sodium chloride. Reverse phase analysis was performed on a Zorbax C8, 150Å pore size column using an acetonitrile gradient in 0.1M ammonium phosphate at 45° C., pH 7.0.

quantity of starting material remaining ([1]; 1 M HOAc/CH2 Cl2, 25° C., 0 h): 100%
quantity of starting material remaining ([1]; 1 M HOAc/CH2 Cl2, 25° C., 2 h): 104%
quantity of starting material remaining ([1]; 1 M HOAc/CH2 Cl2, 25° C., 4 h): 96%
quantity of starting material remaining ([1]; 1 M HOAc/CH2 Cl2, 25° C., 6 h): 99%
quantity of starting material remaining ([1]; 1 M HOAc/CH2 Cl2, 25° C., 24 h): 80%
quantity of starting material remaining ([1]; 1 M HOAc/CH3 CN, 25° C., 0 h): 100%
quantity of starting material remaining ([1]; 1 M HOAc/CH3 CN, 25° C., 2 h): 114%
quantity of starting material remaining ([1]; 1 M HOAc/CH3 CN, 25° C., 4 h): 105%
quantity of starting material remaining ([1]; 1 M HOAc/CH3 CN, 25° C., 6 h): 99%
quantity of starting material remaining ([1]; 1 M HOAc/CH3 CN, 25° C., 24 h): 66%
quantity of starting material remaining ([1]; 1 M HOAc/DMF, 25° C., 0 h): 100%
quantity of starting material remaining ([1]; 1 M HOAc/DMF, 25° C., 2 h): 88%
quantity of starting material remaining ([1]; 1 M HOAc/DMF, 25° C., 4 h): 71%
quantity of starting material remaining ([1]; 1 M HOAc/DMF, 25° C., 6 h): 57%
quantity of starting material remaining ([1]; 1 M HOAc/DMF, 25° C., 24 h): 11%
quantity of starting material remaining ([1]; 1 M HOAc/DMSO, determined at 40° C., 0 h): 100%
quantity of starting material remaining ([1]; 1 M HOAc/DMSO, determined at 40° C., 2 h): 73%
quantity of starting material remaining ([1]; 1 M HOAc/DMSO, determined at 40° C., 4 h): 56%
quantity of starting material remaining ([1]; 1 M HOAc/DMSO, determined at 40° C., 24 h): 6%
quantity of starting material remaining ([1]; 1 M HOAc/MeOH, 25° C., 0 h): 100%
quantity of starting material remaining ([1]; 1 M HOAc/MeOH, 25° C., 2 h): 101%
quantity of starting material remaining ([1]; 1 M HOAc/MeOH, 25° C., 4 h): 99%
quantity of starting material remaining ([1]; 1 M HOAc/MeOH, 25° C., 6 h): 99%
quantity of starting material remaining ([1]; 1 M HOAc/MeOH, 25° C., 24 h): 97%
quantity of starting material remaining ([1]; 1 M HOAc/nPrOH, 25° C., 2 h): 100%
quantity of starting material remaining ([1]; 1 M HOAc/nPrOH, 25° C., 4 h): 97%
quantity of starting material remaining ([1]; 1 M HOAc/nPrOH, 25° C., 6 h): 94%
quantity of starting material remaining ([1]; 1 M HOAc/nPrOH, 25° C., 24 h): 72%
Compound: CSCC[C@H](N)C(=O)N1CCC[C@H]1C(=O)NCC(=O)NCC(N)=O [Met--Pro--Gly--Gly--NH2] (H-MPGG-NH2)

Compound: insulin Achain Ssulfonate [A(SO3^- )4, reference compound]
Protein Stability, relative percent remaining ([2]; 1 M HOAc/DMF, 2 h): 100%
Protein Stability, relative percent remaining ([2]; 1 M HOAc/DMF, 24 h): 58%
Protein Stability, relative percent remaining ([2]; 1 M HOAc/DMSO, 2 h): 100%
Protein Stability, relative percent remaining ([2]; 1 M HOAc/DMSO, 24 h): 100%
Protein Stability, relative percent remaining ([2]; 1 M HOAc/DMSO, 48 h): 96%

Compound: insulin Bchain Ssulfonate [B(SO3^- )2, reference compound]
Protein Stability, relative percent remaining ([2]; 1 M HOAc/DMF, 2 h): 97%
Protein Stability, relative percent remaining ([2]; 1 M HOAc/DMF, 24 h): 62%
Protein Stability, relative percent remaining ([2]; 1 M HOAc/DMSO, 2 h): 94%
Protein Stability, relative percent remaining ([2]; 1 M HOAc/DMSO, 24 h): 106%

Compound: Proinsulin
Protein Stability, relative percent remaining ([2]; 1 M HOAc/DMF, 2 h): 86%
Protein Stability, relative percent remaining ([2]; 1 M HOAc/DMF, 24 h): 43%
Protein Stability, relative percent remaining ([2]; 1 M HOAc/DMF, 48 h): 30%
Protein Stability, relative percent remaining ([2]; 1 M HOAc/DMSO, 2 h): 97%
Protein Stability, relative percent remaining ([2]; 1 M HOAc/DMSO, 24 h): 70%
Protein Stability, relative percent remaining ([2]; 1 M HOAc/DMSO, 48 h): 86%

Compound: methionyl human growth hormone
Stability, determined by anion exchange HPLC ([3]; 0.33 M HOAc/DMF, 2 h): 78
Stability, determined by anion exchange HPLC ([3]; 0.33 M HOAc/DMF, 4 h): 68
Stability, determined by anion exchange HPLC ([3]; 0.33 M HOAc/DMF, 24 h): 34
Stability, determined by anion exchange HPLC ([3]; 0.33 M HOAc/DMSO, 2 h): 100
Stability, determined by anion exchange HPLC ([3]; 0.33 M HOAc/DMSO, 4 h): 99
Stability, determined by anion exchange HPLC ([3]; 0.33 M HOAc/DMSO, 24 h): 86
Stability, determined by anion exchange HPLC ([3]; 0.33 M HOAc/NMP, 2 h): 90
Stability, determined by anion exchange HPLC ([3]; 0.33 M HOAc/NMP, 4 h): 89
Stability, determined by anion exchange HPLC ([3]; 0.33 M HOAc/NMP, 24 h): 75
Stability, determined by reverse phase HPLC ([2]; 0.33 M HOAc/DMF, 2 h): 78
Stability, determined by reverse phase HPLC ([2]; 0.33 M HOAc/DMF, 4 h): 65
Stability, determined by reverse phase HPLC ([2]; 0.33 M HOAc/DMF, 24 h): 45
Stability, determined by reverse phase HPLC ([2]; 0.33 M HOAc/DMSO, 2 h): 91
Stability, determined by reverse phase HPLC ([2]; 0.33 M HOAc/DMSO, 4 h): 77
Stability, determined by reverse phase HPLC ([2]; 0.33 M HOAc/DMSO, 24 h): 75
Stability, determined by reverse phase HPLC ([2]; 0.33 M HOAc/NMP, 2 h): 85
Stability, determined by reverse phase HPLC ([2]; 0.33 M HOAc/NMP, 4 h): 70
Stability, determined by reverse phase HPLC ([2]; 0.33 M HOAc/NMP, 24 h): 77

Protein Stability, relative percent remaining ([2]; 1 M HOAc/DMF, 2 h): 42%
Protein Stability, relative percent remaining ([2]; 1 M HOAc/DMF, 24 h): 40%
Protein Stability, relative percent remaining ([2]; 1 M HOAc/DMF, 48 h): 32%
Protein Stability, relative percent remaining ([2]; 1 M HOAc/DMSO, 2 h): 52%
Protein Stability, relative percent remaining ([2]; 1 M HOAc/DMSO, 24 h): 90%
Protein Stability, relative percent remaining ([2]; 1 M HOAc/DMSO, 48 h): 86%
Compound: APLEPEYPGDNATPEQMAQYAAELRRYINMLTRPRY-NH2 [bPP, bovine pancreatic polypeptide, reference compound]
